From ChEMBL document CHEMBL1201862, “PubChem BioAssay data set” (2004) come the findings set out here.

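Method: 48-hour compound exposure of cells in 96-well plates, five concentrations, linear interpolation of endpoints. Here, GI50 denotes the concentration required for 50% inhibition of growth.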 Calls of active or inactive are those of the source. Cut-off read from the data, not from the text of the source: active = GI50 up to about 1.1 µM and inactive = higher.

Among the test systems are SF-295; M14; CAKI-1; MOLT-4; OVCAR-8; OVCAR-3; K562; SK-MEL-2; HCC 2998; SF-268; UO-31; SNB-19; IGROV-1; NCI-H522; HCT-15; TK-10; SNB-75; RXF 393.
Test in all cases: NCI-60 cell line screen, 48 h

In the case of `NC(=O)c1csc(C2C=CC(CO)O2)n1` (stereo unspecified), the GI50 is > 10 µM (inactive) with SF-295; > 100 µM (inactive) with M14; > 100 µM (inactive) in the assay with CAKI-1; > 100 µM (inactive) in the assay on MOLT-4; > 100 µM (inactive) in the assay with OVCAR-8; > 10 µM (inactive) in the assay with OVCAR-3. For the same compound, the GI50 in the assay with K562, in the assay with SK-MEL-2, in the assay with HCC 2998, in the assay with SF-268, in the assay with UO-31 and in the assay with SNB-19 was > 100 µM (inactive) in each case. In addition, the GI50 with IGROV-1 is > 100 µM (inactive); in the assay on NCI-H522, > 100 µM (inactive); in the assay on HCT-15, over 100 µM; in the assay with TK-10, > 100 µM (inactive).

For `CC(C)c1ccccc1NC(=O)CCc1n[nH]c(=S)o1`, the GI50 with SF-295 is > 100 µM (inactive); with M14, > 100 µM (inactive); with CAKI-1, > 100 µM (inactive); in the assay on MOLT-4, > 100 µM (inactive); with OVCAR-8, > 100 µM (inactive); with SNB-75, > 66.4 µM (inactive). For the same compound, the GI50 with OVCAR-3 was > 100 µM (inactive); in the assay on K562, > 50.7 µM (inactive); in the assay on HCC 2998, > 100 µM (inactive); in the assay on SF-268, > 100 µM (inactive); with UO-31, > 100 µM (inactive); with RXF 393, > 100 µM (inactive). In addition, the GI50 was > 100 µM (inactive) in the assay with SNB-19; > 100 µM (inactive) with IGROV-1; > 100 µM (inactive) in the assay on NCI-H522; over 41.7 µM in the assay with HCT-15; > 100 µM (inactive) in the assay on TK-10.

As for `COc1cc(CCc2ccncc2)cc(OC)c1OC`, the GI50 with SF-295, with M14, in the assay with CAKI-1, in the assay with MOLT-4, in the assay with OVCAR-8 and with SNB-75 was > 100 µM (inactive) throughout. For the same compound, the GI50 in the assay with OVCAR-3, in the assay on K562, with SF-268, with UO-31, with RXF 393 and in the assay on SNB-19 was > 100 µM (inactive) throughout. Further, the GI50 is > 100 µM (inactive) in the assay with IGROV-1, > 100 µM (inactive) in the assay on NCI-H522, over 100 µM with HCT-15 and > 100 µM (inactive) in the assay with TK-10.

As to `CC(=O)c1c(O)c2c([nH]c1=O)CCCC2`, the GI50 with SF-295 is 15.7 µM (inactive); with M14 it was 39.3 µM (inactive); in the assay on CAKI-1 it was > 100 µM (inactive); in the assay with MOLT-4, 8.34 µM (inactive); in the assay on OVCAR-8, 82.2 µM (inactive); in the assay on SNB-75, 10.6 µM (inactive). The GI50 in the assay on OVCAR-3 is > 100 µM (inactive); with K562 it was > 100 µM (inactive); in the assay on HCC 2998, 8.05 µM (inactive); in the assay on SF-268 it was 46.8 µM (inactive); in the assay with UO-31 it was 17.2 µM (inactive); in the assay with RXF 393 it was 22.3 µM (inactive). The GI50 was 18 µM (inactive) with SNB-19, 32.9 µM (inactive) in the assay on IGROV-1, 48.1 µM in the assay with HCT-15 and > 100 µM (inactive) in the assay with TK-10.

Regarding `CSC(C1c2ccccc2N(c2ccc(C)cc2)C2=NC(=O)N(C)C(=O)C21Cl)S(=O)(=O)c1ccc(C)cc1` (stereo unspecified), the GI50 is 24.2 µM (inactive) in the assay with SF-295; 26.9 µM (inactive) with M14; 19.8 µM (inactive) in the assay on CAKI-1; 6.08 µM (inactive) with MOLT-4; 27.8 µM (inactive) with OVCAR-8; 23 µM (inactive) in the assay with SNB-75. For the same compound, the GI50 in the assay on OVCAR-3 was 13.2 µM (inactive); in the assay with K562, 19.1 µM (inactive); in the assay with SK-MEL-2 it was 18.8 µM (inactive); in the assay on HCC 2998, 20.4 µM (inactive); in the assay with SF-268 it was 23.6 µM (inactive); with UO-31, 22.4 µM (inactive). Besides, the GI50 was 26.4 µM (inactive) with SNB-19, 33.3 µM (inactive) with IGROV-1, 13.4 µM (inactive) with NCI-H522 and 48.6 µM (inactive) with TK-10.

In the case of `O=S(=O)(N/N=C/c1ccc(Cl)cc1Cl)c1ccccc1`, the GI50 was > 100 µM (inactive) with SF-295; 81.1 µM (inactive) in the assay with M14; 59.4 µM (inactive) with CAKI-1; 34.7 µM (inactive) in the assay with MOLT-4; 71.4 µM (inactive) with OVCAR-8; 83 µM (inactive) with SNB-75. Moreover, the GI50 in the assay with OVCAR-3 was 91.4 µM (inactive); in the assay with K562, 59 µM (inactive); with SK-MEL-2, > 100 µM (inactive); in the assay with HCC 2998 it was > 100 µM (inactive); in the assay with SF-268 it was 63.1 µM (inactive); in the assay on UO-31 it was > 100 µM (inactive). Moreover, the GI50 in the assay with RXF 393 was 77.1 µM (inactive); in the assay with IGROV-1, > 100 µM (inactive); in the assay with HCT-15 it was over 100 µM; in the assay on TK-10, > 100 µM (inactive).

As for `Cc1cc(C)nc(NS(=O)(=O)c2ccc(Nc3c4ccccc4nc4c(C(=O)NCCN(C)C)cccc34)cc2)n1`, the GI50 in the assay on SF-295 is 1.91 µM (inactive); in the assay on M14, 6.5 µM (inactive); in the assay on MOLT-4 it was 0.277 µM (active); in the assay with OVCAR-8, 0.675 µM (active); in the assay with SNB-75 it was 10.7 µM (inactive); in the assay with K562 it was 2.08 µM (inactive). The GI50 in the assay with SK-MEL-2 was 4.89 µM (inactive); in the assay with SF-268, 2.57 µM (inactive); in the assay with UO-31, 1.49 µM (inactive); with RXF 393 it was 6.32 µM (inactive); in the assay on SNB-19, 1.85 µM (inactive); with IGROV-1, 2.83 µM (inactive). For the same compound, the GI50 was 0.566 µM (active) with NCI-H522, 5.66 µM in the assay with HCT-15 and 10.6 µM (inactive) with TK-10.

Turning to `COC(=O)C1=C(O)c2cc(-c3ccccc3)c(-c3ccccc3)c(C#N)c2NC(=O)C1`, the GI50 was 3.54 µM (inactive) in the assay with SF-295; 4.99 µM (inactive) in the assay with M14; 7.03 µM (inactive) in the assay with CAKI-1; 2.46 µM (inactive) in the assay with MOLT-4; 4.13 µM (inactive) with OVCAR-8; 16.8 µM (inactive) with SNB-75. Moreover, the GI50 in the assay on OVCAR-3 is 77.8 µM (inactive); with K562, 3.27 µM (inactive); in the assay on SK-MEL-2 it was 40.8 µM (inactive); in the assay on HCC 2998, 34.9 µM (inactive); in the assay with UO-31, 1.4 µM (inactive); in the assay with RXF 393, 1.7 µM (inactive). The values for the GI50 in the assay on SNB-19, in the assay on IGROV-1 and in the assay with HCT-15 were 20.4 µM (inactive), 0.522 µM (active) and 1.55 µM, respectively.

`Cc1cc2c(C)n[nH]c2c(C(=O)O)c1C`: the GI50 with SF-295, in the assay on CAKI-1, with MOLT-4, in the assay with OVCAR-8, with SNB-75 and in the assay on OVCAR-3 was > 100 µM (inactive) each time. In addition, the GI50 in the assay on K562 is > 100 µM (inactive); in the assay with SK-MEL-2, > 100 µM (inactive); in the assay with HCC 2998 it was > 100 µM (inactive); in the assay with UO-31, 85.5 µM (inactive); in the assay with RXF 393, > 100 µM (inactive); in the assay with SNB-19, > 100 µM (inactive). For the same compound, the GI50 in the assay with IGROV-1 is > 100 µM (inactive); with HCT-15, over 100 µM.

In the case of `Fc1ccc(C2SCc3nc4ccccc4n32)cc1Cl` (stereo unspecified), the GI50 with SF-295 is 26.5 µM (inactive); with CAKI-1 it was 13 µM (inactive); in the assay on MOLT-4, 23.2 µM (inactive); in the assay with OVCAR-8 it was 21.3 µM (inactive); in the assay with K562, 16.5 µM (inactive); with SK-MEL-2, > 10 µM (inactive). Also, the GI50 was 16.3 µM (inactive) in the assay with HCC 2998; 33.6 µM (inactive) in the assay on SF-268; 16.7 µM (inactive) in the assay with UO-31; 19.4 µM (inactive) in the assay on RXF 393; 34.4 µM (inactive) with SNB-19; > 10 µM (inactive) with IGROV-1. The GI50 was 13.7 µM (inactive) with NCI-H522 and 27.8 µM (inactive) in the assay with TK-10.

As for `O=C(CC1(O)C(=O)Nc2c(Cl)ccc(Cl)c21)c1ccc(Cl)cc1` (stereo unspecified), the GI50 with SF-295 is 34.5 µM (inactive); in the assay with M14, 26.4 µM (inactive); in the assay on CAKI-1, 51.1 µM (inactive); with OVCAR-8 it was 18.9 µM (inactive); with SNB-75, 26.6 µM (inactive); in the assay with OVCAR-3, 23.3 µM (inactive). Also, the GI50 in the assay on SK-MEL-2 was 25.2 µM (inactive); with HCC 2998 it was 24.5 µM (inactive); in the assay with SF-268 it was 37 µM (inactive); with UO-31 it was 34.4 µM (inactive); in the assay with RXF 393, 21.9 µM (inactive); with SNB-19, 67.8 µM (inactive). For the same compound, the GI50 in the assay with IGROV-1 is 23.9 µM (inactive); in the assay with HCT-15, 31.4 µM; in the assay on TK-10, > 100 µM (inactive).

`CN(C)CCC(/C=C/c1ccccc1)=N\Nc1ccc(Cl)c(Cl)c1`: the GI50 with SF-295 was 3.78 µM (inactive); in the assay on M14 it was 2.72 µM (inactive); in the assay with CAKI-1, 2.61 µM (inactive); in the assay on MOLT-4, 2.44 µM (inactive); in the assay with OVCAR-8, 2.7 µM (inactive); in the assay on SNB-75, 2.27 µM (inactive). Besides, the GI50 was 4.27 µM (inactive) with OVCAR-3; 2.23 µM (inactive) with K562; 2.49 µM (inactive) in the assay with SK-MEL-2; 2.56 µM (inactive) in the assay with SF-268; 1.64 µM (inactive) in the assay on UO-31; 2.74 µM (inactive) with RXF 393. Moreover, the GI50 in the assay on SNB-19 was 5.53 µM (inactive); in the assay with IGROV-1, 3.04 µM (inactive); in the assay with NCI-H522, 2.1 µM (inactive); in the assay with HCT-15, 3.6 µM; with TK-10 it was 2.38 µM (inactive).

For the compound `O=C(O)c1c2c(cc3c(=O)c4ccccc4[nH]c13)CCCC2`, the GI50 is 68.5 µM (inactive) with SF-295; > 100 µM (inactive) in the assay with MOLT-4; > 100 µM (inactive) in the assay on OVCAR-8; > 100 µM (inactive) in the assay on SNB-75; > 100 µM (inactive) with OVCAR-3; > 100 µM (inactive) in the assay with SK-MEL-2. Moreover, the GI50 in the assay with HCC 2998 is 46.3 µM (inactive); in the assay with SF-268, > 100 µM (inactive); in the assay on UO-31 it was > 100 µM (inactive); in the assay on RXF 393, > 100 µM (inactive); in the assay with SNB-19, 88.5 µM (inactive); with IGROV-1 it was > 100 µM (inactive). Besides, the GI50 in the assay with HCT-15 was 62.7 µM; in the assay with TK-10 it was > 100 µM (inactive).
